Data: patent US10221163B2 (priority 2015, dated 2019)
Where two headings read alike, the source gives them in different places.

Assays:
[1] = tested on: Pseudomonas aeruginosa efflux+ (MB9798), IMP-1; format: cell-based; design: Concentration of metallo-β-lactamase inhibitor which restores susceptibility of efflux + (MB9798) strain to imipenem: unit not given here; conditions: C, D serine β-lactamase inhibitor closely related to relebactam; for P. aeruginosa expressing IMP-1, efflux + (MB9798) MITC95: concentration restoring susceptibility to imipenem at 2 μg/mL in the presence of a class A; for Concentration of metallo-β-lactamase inhibitor which restores susceptibility of efflux + (MB9798) strain to imipenem: imipenem at 2 μg/mL, in the presence of a class A
From the text: (§1) The strain background was Pseudomonas aeruginosa PAO1.
(§2) The strain set was then used as a pair to determine the effect of metallo-β-lactamase inhibitors of Formula I on the MIC of imipenem and/or ceftazidime. A fixed concentration of antibiotic was included in standard microbroth MIC tests, usually at the CLSI (Clinical and Laboratory Standards Institute) breakpoint concentration. A fixed amount of a class A/C beta-lactamase inhibitor was also included to inhibit the resident Pseudomonas AmpC enzyme. A serial titration of the metallo-β-lactamase inhibitor was included and the concentration of metallo-β-lactamase inhibitor which restores susceptibility of the strain to the included antibiotic was recorded. That concentration of metallo-β-lactamase inhibitor was then compared between the two strains to determine the fold difference between the efflux+ (MB9798) and efflux− (MB9799) strains. This was taken as an indication of the extent to which the MBLi is subject to efflux.

VIM-1 = VIM-1 (Pseudomonas aeruginosa (strain ATCC 15692 / DSM 22644 / CIP 104116 / JCM 14847 / LMG 12228 / 1C / PRS 101 / PAO1), UniProt A0A0F7KYQ8); assay: biochemical; conditions: CCF2-FA substrate, 30 pM enzyme, 2 hours at 25° C.
Experimental: (§3) Enzyme Activity: Determination of IC50
(§4) The Class B enzyme activities were measured in the presence of the test inhibitor in a fluorescence assay against a commercially available substrate consisting of a cephalosporin core linking 7-hydroxycoumarin to fluorescein (CCF2-FA). […] In a 384-well microplate, the test inhibitor was incubated with the metallo-β-lactamase enzyme and the substrate for 2 hours at 25° C. […] The IC50 value was determined from semi-logarithmic plots of enzyme inhibition versus inhibitor concentration, with a curve generated using a 4-parameter fit.

[2] = tested on: Pseudomonas aeruginosa efflux− (MB9799), IMP-1; format: cell-based; conditions: C, D serine β-lactamase inhibitor closely related to relebactam; for P. aeruginosa expressing IMP-1, efflux − (MB9799) MITC95: concentration restoring susceptibility to imipenem at 2 μg/mL in the presence of a class A; for Concentration of metallo-β-lactamase inhibitor which restores susceptibility of efflux − (MB9799) strain to imipenem: imipenem at 2 μg/mL, in the presence of a class A
From the text: as §1, §2

NDM-1 = NDM-1 (Klebsiella pneumoniae, UniProt C7C422); assay: biochemical; format: biochemical; conditions: fluorescence assay, CCF2-FA substrate, 1 pM enzyme, 2 hours at 25° C.; read-out: NDM-1 IC50
Chain of NDM-1 (C7C422 whole entry, looked up, species assumed): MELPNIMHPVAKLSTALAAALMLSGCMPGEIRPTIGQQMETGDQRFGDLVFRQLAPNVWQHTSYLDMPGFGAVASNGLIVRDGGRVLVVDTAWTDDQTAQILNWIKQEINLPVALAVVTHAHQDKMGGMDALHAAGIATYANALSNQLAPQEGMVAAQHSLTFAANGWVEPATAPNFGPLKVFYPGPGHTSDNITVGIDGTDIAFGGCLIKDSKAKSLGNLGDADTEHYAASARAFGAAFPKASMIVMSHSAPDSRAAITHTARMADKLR
Experimental: as §3, §4

[3] = tested on: Serratia marcescens expressing IMP-1 (CL5741); format: cell-based; conditions: for Serratia marcescens expressing IMP-1 (CL5741) MITC95: with imipenem 1 μg/ml, 95% inhibition of bacterial growth; for Serratia marcescens MITC95: IMP-1 strain CL5741, with imipenem 1 μg/ml, 95% inhibition of growth
Experimental: (§5) Antibiotic Potentiation Activity: Determination of Synergistic Concentration
(§6) The bacterial strains tested included the clinical strains Escherichia coli expressing NDM-1 (CLB30005, CLB30016), Serratia marcescens expressing IMP-1 (CL5741), and Klebsiella pneumoniae expressing VIM-1 (IHMA599644). Inhibitor activity was measured in the presence and absence of imipenem in a 384-well microplate.
(§7) The clinical strains CLB30016, CL5741 and IHMA599644 were grown on trypticase soy agar containing 5% sheep's blood. The bacteria on agar plates were incubated at 35° C. with humidity overnight. The following day, individual colonies from each clinical strain were picked and resuspended in 5 ml saline to attain an OD600 of […], for CLB30016, CL5741 and IHMA599644, respectively. These were further diluted 1:100 into 1.1×CAMHB and used to inoculate the test wells as described below.
(§8) Imipenem in 10 mM 3-(N-morpholino)propanesulfonic acid (MOPS, pH 7) was stored in single use aliquots at −80° C. […] On the day of the assay, 4 μl of antibiotic was added to 45 ul of bacteria followed by 1 μl of test compound and mixed by pipetting and with an orbital shaker. The concentration of antibiotic used in the assay was 1 μg/ml. Microplates were covered and incubated at 35° C. for 22 hours to 24 hours. At the end of the incubation, absorbance was determined using a spectrophotometer.

[4] = tested on: Escherichia coli expressing NDM-1 (CLB30005, CLB30016); format: cell-based; conditions: with imipenem 1 μg/ml; for Escherichia coli expressing NDM-1 (CLB30016) MITC95: 95% inhibition of bacterial growth; for Escherichia coli MITC95: NDM-1 strain, 95% inhibition of growth
Experimental: as §5, §6, §7, §8

[5] = tested on: Klebsiella pneumoniae expressing VIM-1 (IHMA599644); format: cell-based; conditions: for Klebsiella pneumoniae expressing VIM-1 (IHMA599644) MITC95: with imipenem 1 μg/ml, 95% inhibition of bacterial growth; for Klebsiella pneumoniae MITC95: VIM-1 strain IHMA599644, with imipenem 1 μg/ml, 95% inhibition of growth
Experimental: as §5, §6, §7, §8

IMP-1 = IMP-1 (Serratia marcescens, UniProt P52699); assay: biochemical; format: biochemical; conditions: fluorescence assay, CCF2-FA substrate, 2 pM enzyme, 2 hours at 25° C.; read-out: IMP-1 IC50
Chain of IMP-1 (P52699 whole entry, looked up, species assumed): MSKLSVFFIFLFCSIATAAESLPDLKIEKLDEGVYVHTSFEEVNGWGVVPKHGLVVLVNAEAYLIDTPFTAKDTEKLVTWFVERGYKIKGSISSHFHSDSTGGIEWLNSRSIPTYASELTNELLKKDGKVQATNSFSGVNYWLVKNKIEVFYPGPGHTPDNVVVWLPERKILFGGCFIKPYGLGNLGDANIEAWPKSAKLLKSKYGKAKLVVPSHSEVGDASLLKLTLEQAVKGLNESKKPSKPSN
Experimental: as §3, §4

Row | SMILES | P. aeruginosa expressing IMP-1, efflux + (MB9798) MITC95 [1] | IC50 (VIM-1; fluorescence assay, read-out: VIM-1 IC50) | P. aeruginosa expressing IMP-1, efflux − (MB9799) MITC95 [2] | IC50 (NDM-1) | Serratia marcescens expressing IMP-1 (CL5741) MITC95 [3] | Escherichia coli expressing NDM-1 (CLB30016) MITC95 [4] | Klebsiella pneumoniae expressing VIM-1 (IHMA599644) MITC95 [5] | Concentration of metallo-β-lactamase inhibitor which restores susceptibility of efflux + (MB9798) strain to imipenem [1] | Concentration of metallo-β-lactamase inhibitor which restores susceptibility of efflux − (MB9799) strain to imipenem [2] | IC50 (IMP-1) | Serratia marcescens MITC95 [3] | Escherichia coli MITC95 [4] | Klebsiella pneumoniae MITC95 [5] | IC50 (VIM-1; VIM-1 IC50, fluorescence assay)
1 | Nc1nc2c(-c3ccc(S(=O)(=O)NC[C@H]4CCCN4)c(S(N)(=O)=O)c3-c3nnn[nH]3)cccc2s1.O=CO [Example 126, (R)-2-((4-(2-aminobenzo[d]thiazol-4-yl)-2-sulfamoyl-3-(1H-tetrazol-5-yl)phenylsulfonamido)methyl)pyrrolidin-1-ium formate] | 0.7813 µM | 0.18 nM | 1.563 µM | 0.0569 nM | 1.563 µM | 1.563 µM | 3.125 µM | – | – | – | – | – | – | –
2 | C[N+](C)(C)CCCNS(=O)(=O)c1ccc(-c2cccc3sc(N)nc23)c(-c2nnn[nH]2)c1S(N)(=O)=O.O=C([O-])C(F)(F)F [Example 392, 3-({[4-(2-amino-1,3-benzothiazol-4-yl)-2-sulfamoyl-3-(1H-tetrazol-5-yl)phenyl]sulfonyl}amino)-N,N,N-trimethylpropan-1-aminium trifluoroacetate] | – | – | – | 0.0318 nM | – | – | – | 1.563 | 3.125 | 0.221 nM | 3.125 µM | 3.125 µM | 12.5 µM | –
3 | NCC(=O)NC1C=C(c2ccc(S(=O)(=O)N[C@@H]3CCNC3)c(S(N)(=O)=O)c2-c2nn[nH]n2)CCC1 (stereo partly drawn) [Example 269, 2-Amino-N-(4′-(N—((R)-pyrrolidin-3-yl)sulfamoyl)-3′-sulfamoyl-2′-(2H-tetrazol-5-yl)-3,4,5,6-tetrahydro-[1,1′-biphenyl]-3-yl)acetamide] | 3.125 µM | – | 1.563 µM | 1.17 nM | – | – | – | – | – | 4.03 nM | 1.563 µM | 1.563 µM | 3.125 µM | –
4 | NCCNS(=O)(=O)c1ccc(-c2cccc3ncccc23)c(-c2nn[nH]n2)c1S(N)(=O)=O [Example 360, N1-(2-aminoethyl)-4-(quinolin-5-yl)-3-(2H-tetrazol-5-yl)benzene-1,2-disulfonamide] | 1.563 µM | – | 1.563 µM | – | – | – | – | – | – | – | 1.563 µM | 1.563 µM | 3.125 µM | 0.135 nM
5 | Nc1nc2c(-c3ccc(S(=O)(=O)N[C@H]4CCNC4)c(S(N)(=O)=O)c3-c3nn[nH]n3)cc(F)cc2[nH]1 [Example 399] | – | – | – | 0.0822 nM | – | – | – | 0.7813 | 0.7813 | 0.533 nM | 1.563 µM | 0.7813 µM | 1.563 µM | –
6 | Nc1nc2c(-c3ccc(S(=O)(=O)NCCN4CCC4)c(S(N)(=O)=O)c3-c3nnn[nH]3)cccc2s1 [Example 21, 4-(2-amino-1,3-benzothiazol-4-yl)-N1-(2-azetidin-1-ylethyl)-3-(1H-tetrazol-5-yl)benzene-1,2-disulfonamide] | 1.563 µM | – | 1.563 µM | 0.0642 nM | 3.125 µM | 6.25 µM | 6.25 µM | – | – | 0.383 nM | – | – | – | –
7 | C[N+]1(CCN)CC[C@@H](NS(=O)(=O)c2ccc(-c3cccc4[nH]c(N)nc34)c(-c3nn[nH]n3)c2S(N)(=O)=O)C1.O=CO[O-] (stereo partly drawn) [Example 248, (3R)-3-{[4-(2-amino-1H-1,3-benzodiazol-4-yl)-2-sulfamoyl-3-(2H-1,2,3,4-tetrazol-5-yl)benzene]sulfonamido}-1-(2-aminoethyl)-1-methylpyrrolidin-1-ium; methaneperoxoate] | 0.7813 µM | – | 0.7813 µM | 0.0105 nM | – | – | – | – | – | 0.147 nM | 1.563 µM | 0.3906 µM | 0.7813 µM | –
8 | C[C@H](N)CNS(=O)(=O)c1ccc(-c2ccnc(N)c2)c(-c2nn[nH]n2)c1S(N)(=O)=O [Example 421] | – | – | – | 0.196 nM | – | – | – | 1.563 | 0.7813 | 1.14 nM | 0.7813 µM | 0.3906 µM | 1.563 µM | –
9 | CCOC(=O)c1sc(N)nc1-c1cccc(-c2ccc(S(=O)(=O)NC(CN)CN)c(S(N)(=O)=O)c2-c2nnn[nH]2)c1 [Example 431] | – | – | – | 0.0739 nM | – | – | – | 12.5 | 1.563 | 0.133 nM | 3.125 µM | 3.125 µM | 6.25 µM | –
10 | Nc1ccc(-c2ccc(S(=O)(=O)N[C@H]3CCCNC3)c(S(N)(=O)=O)c2-c2nn[nH]n2)cn1 [Example 494, (S)-4-(6-aminopyridin-3-yl)-N1-(piperidin-3-yl)-3-(2H-tetrazol-5-yl)benzene-1,2-disulfonamide] | – | – | – | 0.276 nM | – | – | – | 3.125 | 1.563 | 0.808 nM | 1.563 µM | 0.7813 µM | 3.125 µM | –
